Each structure is given as a SMILES string. Like-named read-outs stand apart in the source and are kept apart here.

Among the data in patent US11040031B2, “Pyrazole derivatives as MALT1 inhibitors” (Janssen Pharmaceutica NV, priority 2018, dated 2021) are IC50 values, retold here.

Assay [1] deals with Secretion of IL10 by TMD8 ABC-DLBCL cells. In words: Human IL10 Mesoscale assay (TMD-8). Type of assay: cell-based. To be noted: read-out: Human IL10 Mesoscale assay (TMD-8). The procedure:
(§1) NFKB signaling regulates the secretion of multiple cytokines, including IL6 and IL10. Secretion of the cytokines IL6 and IL10 by TMD8 or OCI-LY3 ABC-DLBCL cells was measured using a mesoscale assay.
(§2) Cell passage number should not exceed 30. Cells should be kept between 0.5-2.5 million cells per mL during culturing and cells should be supplemented every 2-3 days with fresh 50 µM beta-mercaptoenthanol. No beta-mercaptoethanol was used during the mesoscale assay.
(§3) DMSO control wells were used to determine the maximum signal (High Control (HC)). […] Compounds and cells were incubated for 24 h at 37° C. and 5% CO2 (assay volume is 150 μL). After 24 h of incubation 50 μL of the supernatant was transferred to a MSD plate (V-Plex Proinflammation Panel 1 (human) kit, Mesoscale (MSD)) and incubated for 2 h with vigorous shaking (600 rpm) at room temperature. Following incubation, plates were washed 3× with PBS+0.05% Tween-20 and 25 μL detection antibody solution (IL6 & IL10 antibodies in diluent 3 (MSD)) was added per well followed by 2 h of incubation with vigorous shaking (600 rpm) at room temperature. After 3× washes with PBS+0.05% Tween-20, plates were incubated with 150 μL 2× Read Buffer T and read on SECTOR imager.

Assay [2] concerns Secretion of IL10 by OCI-LY3 ABC-DLBCL cells. Nature of the assay: Human IL10 Mesoscale assay (OCI-LY3). To be noted: OCI-LY3 cells, 24 h incubation, supernatant, MSD V-Plex, read-out: Human IL10 Mesoscale assay (OCI-LY3). It counts as cell-based. In a few lines: (§4)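 TMD8 or OCI-LY3 ABC-DLBCL cells incubated with compound 24 h at 37° C without beta-mercaptoethanol. Secreted IL6 and IL10 in supernatant quantified by MSD electrochemiluminescence immunoassay; DMSO wells define maximum signal.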

Assay [3] has as its system Secretion of IL6 by OCI-LY3 ABC-DLBCL cells. In words: Human IL6 Mesoscale assay (OCI-LY3). It counts as cell-based. The settings on record: OCI-LY3 cells, 24 h incubation, supernatant, MSD V-Plex, read-out: Human IL6 Mesoscale assay (OCI-LY3). In a few lines: as §4
Assay [4] has as its target T1, full-length MALT1 protein (Strep-MALT1(1-824)-His) (Homo sapiens, UniProt Q9UDY8).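 Also: fluorogenic LRSR-AMC substrate cleavage by MALT1, 50 min compound preincubation then 4 h reaction at RT, 11-point dilution from 30 µM, scaled between enzyme-free and untreated enzyme controls.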
T1 sequence (Q9UDY8 1-824): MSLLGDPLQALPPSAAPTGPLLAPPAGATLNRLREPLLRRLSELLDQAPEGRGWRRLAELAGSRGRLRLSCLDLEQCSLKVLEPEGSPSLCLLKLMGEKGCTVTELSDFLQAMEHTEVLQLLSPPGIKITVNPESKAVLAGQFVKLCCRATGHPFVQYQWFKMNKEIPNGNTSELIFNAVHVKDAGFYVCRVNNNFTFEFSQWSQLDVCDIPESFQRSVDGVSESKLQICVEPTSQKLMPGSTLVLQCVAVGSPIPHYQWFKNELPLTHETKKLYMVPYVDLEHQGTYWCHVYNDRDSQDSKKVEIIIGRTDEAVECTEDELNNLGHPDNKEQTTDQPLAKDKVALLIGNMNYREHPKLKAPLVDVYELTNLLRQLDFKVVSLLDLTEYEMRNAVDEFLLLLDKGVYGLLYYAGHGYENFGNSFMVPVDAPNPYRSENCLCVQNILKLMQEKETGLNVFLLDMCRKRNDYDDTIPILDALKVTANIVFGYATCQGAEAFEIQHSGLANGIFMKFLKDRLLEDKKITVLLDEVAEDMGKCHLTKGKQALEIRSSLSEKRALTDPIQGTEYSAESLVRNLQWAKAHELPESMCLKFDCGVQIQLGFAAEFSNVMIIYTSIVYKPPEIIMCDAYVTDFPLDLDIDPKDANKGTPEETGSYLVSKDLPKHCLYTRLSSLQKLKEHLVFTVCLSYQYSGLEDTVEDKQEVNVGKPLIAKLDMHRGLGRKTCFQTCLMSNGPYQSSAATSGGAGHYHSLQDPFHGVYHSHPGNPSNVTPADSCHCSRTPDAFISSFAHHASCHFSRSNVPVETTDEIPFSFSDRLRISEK
Nature of the assay: biochemical.

Assay [5] relates to Secretion of IL6 by TMD8 ABC-DLBCL cells. Nature of the assay: Human IL6 Mesoscale assay (TMD-8). It counts as cell-based. The settings on record: read-out: Human IL6 Mesoscale assay (TMD-8). The procedure: as §1, §2, §3
Assay [6] has as its system OCI-Ly3 ABC-DLBCL cell line. Nature of the assay: 4-day proliferation assay OCI-Ly3. It counts as cell-based. The settings on record: Homo sapiens, read-out: Anti-proliferation: OCI-LY-3 IC50. The procedure, abridged: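 10,000 OCI-Ly3 cells per well cultured 4 days at 37° C., 5% CO2 without beta-mercaptoethanol, at densities giving linear growth. Viability read by CellTiterGLO luminescence after 10 min at room temperature.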

[7] abbreviates: TMD8 cells, 24 h incubation, supernatant, MSD V-Plex.
[8] abbreviates: 96 h, 10,000 OCI-Ly3 cells per well, 4 days, CellTiterGLO.

For `Cc1cc(F)ccc1-n1ncc(C(=O)Nc2cnc(-n3nccn3)c(Cl)c2)c1C(F)(F)F` [Cpd 1, N-(5-Chloro-6-(2H-1,2,3-triazol-2-yl)pyridin-3-yl)-1-(4-fluoro-2-methylphenyl)-5-(trifluoromethyl)-1H-pyrazole-4-carboxamide], the IC50 came out at 85 nM in assay [1] (setting [7]); 58 nM in assay [2]; 83 nM in assay [3]; 117 nM in assay [4]; 79 nM in assay [5] (setting [7]); 1.35 µM in assay [6] (setting [8]).

Regarding `N#Cc1cc(NC(=O)c2cnn(-c3nccc(Cl)c3Cl)c2C(F)(F)F)cnc1-n1nccn1` [Cpd 36, N-(5-Cyano-6-(2H-1,2,3-triazol-2-yl)pyridin-3-yl)-1-(3,4-dichloropyridin-2-yl)-5-(trifluoromethyl)-1H-pyrazole-4-carboxamide], the IC50 in assay [1] (TMD8, 24 h) came to 1150 nM; in assay [4], 214 nM; in assay [5] (TMD8, 24 h) it was 1550 nM; in assay [6] (OCI-Ly3, 96 h) it was 4.27 µM.

On to `Cc1nccc(-n2ncc(C(=O)Nc3cnc(-n4nccn4)c(C#N)c3)c2C(F)(F)F)c1Cl` [Cpd 43, 1-(3-chloro-2-methylpyridin-4-yl)-N-(5-cyano-6-(2H-1,2,3-triazol-2-yl)pyridin-3-yl)-5-(trifluoromethyl)-1H-pyrazole-4-carboxamide], for which the IC50 was determined as 2240 nM in assay [1] (setting [7]), 170 nM in assay [4], 4790 nM in assay [5] (setting [7]) and 6.31 µM in assay [6] (setting [8]).

In the case of `N#Cc1cc(NC(=O)c2cnn(-c3ncccc3Cl)c2C(F)(F)F)cnc1-n1nccn1` [Cpd 44, 1-(3-Chloropyridin-2-yl)-N-(5-cyano-6-(2H-1,2,3-triazol-2-yl)pyridin-3-yl)-5-(trifluoromethyl)-1H-pyrazole-4-carboxamide], the IC50 in assay [1] (setting [7]) came out at 1230 nM; in assay [4] it was 389 nM; in assay [5] (setting [7]), 490 nM; in assay [6] (setting [8]), 11 µM.

`N#Cc1cc(NC(=O)c2cnn(-c3ccncc3Cl)c2C(F)(F)F)cnc1-n1nccn1` [Cpd 45, 1-(3-chloropyridin-4-yl)-N-(5-cyano-6-(2H-1,2,3-triazol-2-yl)pyridin-3-yl)-5-(trifluoromethyl)-1H-pyrazole-4-carboxamide]: the IC50 in assay [1] (setting [7]) turned out to be 339 nM; in assay [4], 87 nM; in assay [5] (setting [7]), 162 nM; in assay [6] (setting [8]), 4.79 µM.

With `N#Cc1cc(NC(=O)c2cnn(-c3c(Cl)cncc3Cl)c2C(F)(F)F)cnc1-n1nccn1` [Cpd 48, N-(5-cyano-6-(2H-1,2,3-triazol-2-yl)pyridin-3-yl)-1-(3,5-dichloropyridin-4-yl)-5-(trifluoromethyl)-1H-pyrazole-4-carboxamide], the IC50 in assay [1] (TMD8, 24 h) was 513 nM; in assay [4], 204 nM; in assay [5] (TMD8, 24 h), 1620 nM; in assay [6] (OCI-Ly3, 96 h), 3.63 µM.

With `N#Cc1cc(NC(=O)c2cnn(-c3cccc4c3OCCO4)c2C(F)(F)F)cnc1-n1nccn1` [Cpd 49, N-(5-cyano-6-(2H-1,2,3-triazol-2-yl)pyridin-3-yl)-1-(2,3-dihydrobenzo[b][1,4]dioxin-5-yl)-5-(trifluoromethyl)-1H-pyrazole-4-carboxamide], the IC50 in assay [1] (setting [7]) was determined as 151 nM; in assay [4], 148 nM; in assay [5] (setting [7]), 145 nM; in assay [6] (setting [8]), 0.437 µM.

`N#Cc1cc(NC(=O)c2cnn(-c3ccnc4c3OCO4)c2C(F)(F)F)cnc1-n1nccn1` [Cpd 53, 1-([1,3]dioxolo[4,5-b]pyridin-7-yl)-N-(5-cyano-6-(2H-1,2,3-triazol-2-yl)pyridin-3-yl)-5-(trifluoromethyl)-1H-pyrazole-4-carboxamide]: the IC50 in assay [1] (setting [7]) was 209 nM; in assay [2], 145 nM; in assay [3], 166 nM; in assay [4] it was 74 nM; in assay [5] (setting [7]), 89 nM; in assay [6] (setting [8]), 1.86 µM.

With `N#Cc1cc(NC(=O)c2cnn(-c3cccc4c3OCO4)c2C(F)(F)F)cnc1-n1nccn1` [Cpd 59, 1-(benzo[d][1,3]dioxol-4-yl)-N-(5-cyano-6-(2H-1,2,3-triazol-2-yl)pyridin-3-yl)-5-(trifluoromethyl)-1H-pyrazole-4-carboxamide], the IC50 in assay [1] (TMD8, 24 h) is 48 nM; in assay [4] it was 41 nM; in assay [5] (TMD8, 24 h), 35 nM; in assay [6] (OCI-Ly3, 96 h), 0.468 µM.

In the case of `Cc1cc(-n2ncc(C(=O)Nc3cnc(-n4nccn4)c(Cl)c3)c2C(F)(F)F)c(Cl)cn1` [Cpd 68, 1-(5-chloro-2-methylpyridin-4-yl)-N-(5-chloro-6-(2H-1,2,3-triazol-2-yl)pyridin-3-yl)-5-(trifluoromethyl)-1H-pyrazole-4-carboxamide], the IC50 in assay [1] (TMD8, 24 h) is 7080 nM; in assay [4] it was 427 nM; in assay [5] (TMD8, 24 h) it was 5500 nM; in assay [6] (OCI-Ly3, 96 h) it was 7.08 µM.

For the molecule `Cc1nccc(-n2ncc(C(=O)Nc3cnc(-n4nccn4)c(Cl)c3)c2C(F)(F)F)c1Cl` [Cpd 69, 1-(3-chloro-2-methylpyridin-4-yl)-N-(5-chloro-6-(2H-1,2,3-triazol-2-yl)pyridin-3-yl)-5-(trifluoromethyl)-1H-pyrazole-4-carboxamide], the IC50 came to 3240 nM in assay [1] (setting [7]), 257 nM in assay [4], 2290 nM in assay [5] (setting [7]) and 2.09 µM in assay [6] (setting [8]).

As to `Cc1cc(-n2ncc(C(=O)Nc3cnc(-n4nccn4)c(C#N)c3)c2C(F)(F)F)c(Cl)cn1` [Cpd 70, 1-(5-chloro-2-methylpyridin-4-yl)-N-(5-cyano-6-(2H-1,2,3-triazol-2-yl)pyridin-3-yl)-5-(trifluoromethyl)-1H-pyrazole-4-carboxamide], the IC50 was 3550 nM in assay [1] (TMD8, 24 h); 204 nM in assay [4]; 4470 nM in assay [5] (TMD8, 24 h); 6.61 µM in assay [6] (OCI-Ly3, 96 h).

As to `N#Cc1cc(NC(=O)c2cnn(-c3ncc(F)cc3Cl)c2C(F)(F)F)cnc1-n1nccn1` [Cpd 106, 1-(3-chloro-5-fluoropyridin-2-yl)-N-(5-cyano-6-(2H-1,2,3-triazol-2-yl)pyridin-3-yl)-5-(trifluoromethyl)-1H-pyrazole-4-carboxamide], the IC50 in assay [1] (setting [7]) was found to be 2040 nM; in assay [4] it was 251 nM; in assay [5] (setting [7]), 2290 nM; in assay [6] (setting [8]), 2.88 µM.

Regarding `CN1CCOc2c1cccc2-n1ncc(C(=O)Nc2cnc(-n3nccn3)c(C#N)c2)c1C(F)(F)F` [Cpd 132, N-(5-cyano-6-(2H-1,2,3-triazol-2-yl)pyridin-3-yl)-1-(4-methyl-3,4-dihydro-2H-benzo[b][1,4]oxazin-8-yl)-5-(trifluoromethyl)-1H-pyrazole-4-carboxamide], the IC50 in assay [1] (setting [7]) worked out at 1350 nM; in assay [4], 191 nM; in assay [5] (setting [7]), 550 nM; in assay [6] (setting [8]), 1.1 µM.
